This is an account of results in ChEMBL document CHEMBL4613324, “Design, Synthesis, and Evaluation of a Series of Novel Super Long-Acting DPP-4 Inhibitors for the Treatment of Type 2 Diabetes” (J Med Chem, 2020).

Activity calls are given as the source filed them. The rule behind the calls is not given here.

Series [1] is described as follows: Volume of distribution at steady state in ICR mouse at 0.5 mg/kg, iv measured after 0.0833 to 120 hrs by LC-MS-MS analysis. It is filed as ADME, organism-based. The note with it: in vivo, read-out: Vdss.
A short description of series [2]: Half life in ICR mouse at 2 mg/kg, po measured after 0.0833 to 120 hrs by LC-MS-MS analysis. The series is classed as ADME, organism-based. The note with it: in vivo.
Series [3] in a line: Half life in ICR mouse at 0.5 mg/kg, iv measured after 0.0833 to 120 hrs by LC-MS-MS analysis. The series is classed as ADME, organism-based. The note with it: in vivo.
A short description of series [4]: Cmax in ICR mouse at 2 mg/kg, po measured after 0.0833 to 120 hrs by LC-MS-MS analysis. The series is classed as ADME, organism-based. Further details: dose 2 mg/kg, route oral. To be noted: in vivo.
Series [5] is described as follows: AUC (0 to t) in ICR mouse at 2 mg/kg, po measured after 0.0833 to 120 hrs by LC-MS-MS analysis. The series is classed as ADME, organism-based. More on the design: time upper 120 hr, time lower 0.083 hr, dose 2 mg/kg, route oral. The note with it: in vivo.
A short description of series [6]: Intrinsic clearance in mouse liver microsomes at 0.5 uM incubated for 0.5 to 60 mins by LC-MS/MS analysis. The note with it: read-out: CLH. The series is classed as ADME, Microsome.
A short description of series [7]: Clearance in ICR mouse at 0.5 mg/kg, iv measured after 0.0833 to 120 hrs by LC-MS-MS analysis. The series is classed as ADME, organism-based. The note with it: in vivo.
The nature of series [8]: Oral bioavailability in ICR mouse at 2 mg/kg measured after 0.0833 to 120 hrs by LC-MS-MS analysis. The series is classed as ADME, organism-based. The note with it: in vivo.
The target in series [9] is Dipeptidyl peptidase 4 (Mus musculus) (UniProt P28843). Briefly: Ex-vivo inhibition of DPP4 in plasma isolated from ob/ob mouse assessed as time duration during which DPP4 inhibition rate stays above 80% treated at 30 mg/kg, po measured after 2 to 72 hrs by fluorescence based assay. The series is classed as functional, organism-based.
Dipeptidyl peptidase 4 (Mus musculus), sequence (P28843 whole entry, looked up): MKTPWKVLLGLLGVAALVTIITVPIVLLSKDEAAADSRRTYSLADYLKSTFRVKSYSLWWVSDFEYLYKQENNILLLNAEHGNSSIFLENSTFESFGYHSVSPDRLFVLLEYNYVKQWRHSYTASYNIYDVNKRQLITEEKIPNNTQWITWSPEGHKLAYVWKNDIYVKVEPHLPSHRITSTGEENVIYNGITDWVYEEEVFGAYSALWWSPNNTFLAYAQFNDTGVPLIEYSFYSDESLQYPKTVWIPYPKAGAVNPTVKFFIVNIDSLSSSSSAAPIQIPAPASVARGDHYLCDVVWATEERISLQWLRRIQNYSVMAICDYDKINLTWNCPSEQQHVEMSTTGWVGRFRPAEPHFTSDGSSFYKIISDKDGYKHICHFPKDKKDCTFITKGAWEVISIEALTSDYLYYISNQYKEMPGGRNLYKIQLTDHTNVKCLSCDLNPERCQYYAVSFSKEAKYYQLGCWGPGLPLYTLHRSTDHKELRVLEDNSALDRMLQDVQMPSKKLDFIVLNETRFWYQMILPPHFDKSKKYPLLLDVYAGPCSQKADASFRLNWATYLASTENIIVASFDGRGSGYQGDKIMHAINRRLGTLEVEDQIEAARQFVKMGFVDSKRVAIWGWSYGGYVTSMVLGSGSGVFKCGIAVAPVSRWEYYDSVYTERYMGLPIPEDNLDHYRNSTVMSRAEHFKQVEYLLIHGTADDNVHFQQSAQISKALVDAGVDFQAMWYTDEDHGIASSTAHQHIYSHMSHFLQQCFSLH
Series [10] concerns Mus musculus. Briefly: Antidiabetic activity in ob/ob mouse assessed as reduction in random blood glucose levels at 30 mg/kg, po dosed once every three days for 31 days. It is filed as functional, organism-based.
The nature of series [11]: Toxicity in ob/ob mouse assessed as induction of body weight gain at 30 mg/kg, po dosed once every three days for 31 days. The note with it: in vivo, 744 h. The series is classed as organism-based.
The target of series [12] is Dipeptidyl peptidase 4 (Mus musculus) (UniProt P28843). Kind of series: Ex-vivo inhibition of DPP4 in plasma isolated from ob/ob mouse treated at 30 mg/kg, po measured after 2 to 72 hrs by fluorescence based assay. The series is classed as functional, organism-based.
Series [13] deals with Mus musculus. Kind of series: Antidiabetic activity in ob/ob mouse assessed as reduction in decrease in HbA1c level at 3 to 30 mg/kg, po dosed once every three days for 31 day. The series is classed as functional, organism-based.
Series [14] concerns Mus musculus. Briefly: Antidiabetic activity in ob/ob mouse assessed as reduction in decrease in HbA1c level at 30 mg/kg, po dosed once every three days for 31 day relative to control. It is filed as functional. More on the design: scale not given: the % may be the effect or the level left.

Take `CS(=O)(=O)n1cc2c(n1)CN([C@H]1CO[C@H](c3cc(F)ccc3F)[C@@H](N)[C@H]1F)C2`: the Vd in series [1] was found to be 0.957 L/kg. Also, the half-life – broadly, the time in which the quantity being followed falls by half – was 19.2 h in series [2] and 20.9 h in [3]. Further, the maximum concentration (Cmax) – broadly, the peak of the concentration-time curve – in series [4] is 1580 ng/mL. Also, the AUC(0-t) (commonly exposure summed from dosing to a finite time, without extrapolation to infinity) in series [5] was determined as 23500 ng·h/mL. Moreover, in series [6], the microsomal CLint at 0.5 µM was found to be 1.2 µL/min/mg. Besides, the clearance (as a rule, the rate of elimination divided by the concentration) in [7] was found to be 0.645 mL/min/kg. The bioavailability in series [8] was found to be 45.4%.
For `CS(=O)(=O)n1cc2c(n1)CN([C@H]1CO[C@H](c3cc(F)ccc3F)[C@@H](N)C1)C2` [OMARIGLIPTIN], in series [1], the Vd worked out at 1.65 L/kg. The TIME in [9] is 18 h. In addition, the result in the series on Mus musculus [10] and with Mus musculus [13] was Active. Also, the half-life was 4.65 h in series [2] and 3.05 h in [3]. Further, the Activity result was “Toxic” in [11] and 13.6% in the series with Mus musculus [14]. The same compound showed a Cmax in series [4] of 798 ng/mL. Further, the inhibition result in series [12] is “Active”. The compound also returned an AUC(0-t) in series [5] of 4100 ng·h/mL. Also, the microsomal CLint at 0.5 µM in series [6] amounted to 1.89 µL/min/mg. The compound also yielded a clearance in [7] of 7.39 mL/min/kg. Besides, the bioavailability in [8] amounted to 95%.
Regarding `CS(=O)(=O)n1cc2c(n1)CN([C@@H]1C[C@H](N)[C@@H](c3cc(F)c(F)cc3F)O[C@@H]1C(F)(F)F)C2`, the Vd in series [1] came to 2.27 L/kg. Also, the half-life in [2] is 20 h; in series [3], 19.7 h. Further, the Cmax in series [4] amounted to 999 ng/mL. In series [5], this compound came in with an AUC(0-t) of 26500 ng·h/mL. Also, the microsomal CLint at 0.5 µM in [6] worked out at 1.17 µL/min/mg. The same compound registered a clearance in series [7] of 1.44 mL/min/kg. For the same compound, the bioavailability in series [8] came out at 114%.
